Measured values reported in patent publication US12083100B1, “Antiparasitic isoxazoline compounds, long-acting injectable formulations comprising them, methods and uses thereof” (BOEHRINGER INGELHEIM ANIMAL HEALTH USA INC., priority 2016, dated 2024).

Experiments:
[1] = test system: Haematobia irritans (horn fly); assay: Efficacy of long-acting injectable composition against Haematobia irritans (horn fly) on cattle; type: in vivo; settings: naturally infested cattle, 10% (w/v) composition at 0.25 mL/50 kg body weight
Description: The efficacy of a long-acting injectable composition comprising the compound of formula (S)-Ie against horn fly on cattle was evaluated. Two groups of 15 cattle were selected for the study and randomly assigned to one of two groups. The cattle in Group 1 were untreated and the cattle in Group 2 were treated with a long-acting composition of the invention containing 10% (w/v) of the compound of formula (S)-Ie in a carrier comprising 8% (w/v) ethanol in PEG 400 (QS). The composition was administered to the cattle in Group 2 at a dose of 0.25 mL/50 kg body weight. Each animal was naturally infested with horn flies, and horn fly counts were performed on Days-2, 3, 7, 10, 13, 16, 20, 23, 27, 30, 34, 37, 43, 45 and 48. Tables 2A and 2B below provide the horn fly counts and the % reduction of the treated group relative to the control.

[2] = test system: Rhipicephalus microplus ticks; assay: Efficacy of injectable formulation against Rhipicephalus (Boophilus) microplus ticks on cattle; type: in vivo; settings: for Average % Efficacy (Tick Count): vs untreated control
Description: The efficacy of long-acting injectable compositions of the invention comprising the compounds of formula (Ie) and (S)-Ie, against Rhipicephalus microplus ticks on cattle was determined against an untreated control group. The efficacy of compositions comprising the compounds (Ie) and (S)-e were also compared with injectable compositions comprising afoxolaner (formula Ia, 4-[5-[3-chloro-5-(trifluoromethyl)phenyl]-4,5-dihydro-5-(trifluoromethyl)-3-isoxazolyl]-N-[2-oxo-2-[(2,2,2-trifluoroethyl)amino]ethyl]-1-naphthalanecarboxamide), and comparative compounds of formulae (If) and (S)-If shown below.
Each compound was formulated in an injectable composition at a concentration of 10% (w/v) in a carrier comprising 8% (w/v) ethanol and Q.S. with polyethylene glycol 400. The racemic compounds afoxolaner and (If) were dosed at 1.0 mg/kg body weight and the (S)-enantiomers ((S)-Ie and (S)-If) were dosed at 0.5 mg/kg body weight. Six healthy head of cattle were used in each study group. Cattle in Group 1 were untreated (control). Cattle in Groups 2, 3, 4, 5 and 6 were treated on Day 0 subcutaneously with injectable compositions comprising the compounds of formula Ie, (S)-If, (S)-Ie, afoxolaner (Ia) and (If), respectively. Several weeks before treatment, cattle were infested three times a week with approximately 2500 Rhipicephalus microplus larvae to establish ongoing infestations. Each animal was challenged by infestation with approximately 5000 R. microplus larvae on Days 7 and 21 and every 14 days thereafter. Ticks dropping from each animal in the previous 24 hours were collected daily and counted from Day 1 until the end of the study.

[3] = injectable composition, compared with afoxolaner, (If) or (S)-If

## O=C(CNC(=O)c1ccc(C2=NO[C@@](c3cc(Cl)c(F)c(C(F)(F)F)c3)(C(F)(F)F)C2)c2ccccc12)NCC(F)(F)F [(S)-Ie]
[1]; Day 3
  % Reduction of horn fly counts of the treated group relative to the control: 89.5%
  Arithmetic Mean of Horn Fly Counts: 26.7
[1]; Day 7
  % Reduction of horn fly counts of the treated group relative to the control: 74.3%
  Arithmetic Mean of Horn Fly Counts: 35.0
[1]; Day 10
  % Reduction of horn fly counts of the treated group relative to the control: 79.6%
  Arithmetic Mean of Horn Fly Counts: 16.0
[1]; Day 13
  % Reduction of horn fly counts of the treated group relative to the control: 63.3%
  Arithmetic Mean of Horn Fly Counts: 22.0
[1]; Day 16
  % Reduction of horn fly counts of the treated group relative to the control: 57.3%
  Arithmetic Mean of Horn Fly Counts: 44.7
[1]; Day 20
  % Reduction of horn fly counts of the treated group relative to the control: 56.6%
  Arithmetic Mean of Horn Fly Counts: 36.0
[1]; Day 23
  % Reduction of horn fly counts of the treated group relative to the control: 42.5%
  Arithmetic Mean of Horn Fly Counts: 30.7
[1]; Day 27
  % Reduction of horn fly counts of the treated group relative to the control: 61.8%
  Arithmetic Mean of Horn Fly Counts: 22.7
[1]; Day 30
  % Reduction of horn fly counts of the treated group relative to the control: 67.6%
  Arithmetic Mean of Horn Fly Counts: 23.0
[1]; Day 34
  % Reduction of horn fly counts of the treated group relative to the control: 44.8%
  Arithmetic Mean of Horn Fly Counts: 26.3
[1]; Day 37
  % Reduction of horn fly counts of the treated group relative to the control: 61.8%
  Arithmetic Mean of Horn Fly Counts: 28.0
[1]; Day 43
  % Reduction of horn fly counts of the treated group relative to the control: 39.5%
  Arithmetic Mean of Horn Fly Counts: 26.0
[1]; Day 45
  % Reduction of horn fly counts of the treated group relative to the control: 35.5%
  Arithmetic Mean of Horn Fly Counts: 43.0
[1]; Day 48
  % Reduction of horn fly counts of the treated group relative to the control: 31.1%
  Arithmetic Mean of Horn Fly Counts: 30.3
[2]; Day 5, 0.5 mg/kg subcutaneous on Day 0 ((S)-enantiomers)
  Average % Efficacy (Tick Count): 66%
[2]; Day 10, 0.5 mg/kg subcutaneous on Day 0 ((S)-enantiomers)
  Average % Efficacy (Tick Count): 93%
[2]; Day 20, 0.5 mg/kg subcutaneous on Day 0 ((S)-enantiomers)
  Average % Efficacy (Tick Count): 100%
[2]; Day 30, 0.5 mg/kg subcutaneous on Day 0 ((S)-enantiomers)
  Average % Efficacy (Tick Count): 100%
[2]; Day 40, 0.5 mg/kg subcutaneous on Day 0 ((S)-enantiomers)
  Average % Efficacy (Tick Count): 100%
[2]; Day 49, 0.5 mg/kg subcutaneous on Day 0 ((S)-enantiomers)
  Average % Efficacy (Tick Count): 100%
[2]; Day 55, 0.5 mg/kg subcutaneous on Day 0 ((S)-enantiomers)
  Average % Efficacy (Tick Count): 100%
[2]; Day 60, 0.5 mg/kg subcutaneous on Day 0 ((S)-enantiomers)
  Average % Efficacy (Tick Count): 100%
[2]; Day 65, 0.5 mg/kg subcutaneous on Day 0 ((S)-enantiomers)
  Average % Efficacy (Tick Count): 100%
[2]; Day 70, 0.5 mg/kg subcutaneous on Day 0 ((S)-enantiomers)
  Average % Efficacy (Tick Count): 100%
[2]; Day 75, 0.5 mg/kg subcutaneous on Day 0 ((S)-enantiomers)
  Average % Efficacy (Tick Count): 100%
[2]; Day 80, 0.5 mg/kg subcutaneous on Day 0 ((S)-enantiomers)
  Average % Efficacy (Tick Count): 100%
[2]; Day 85, 0.5 mg/kg subcutaneous on Day 0 ((S)-enantiomers)
  Average % Efficacy (Tick Count): 90%
[2]; Day 88, 0.5 mg/kg subcutaneous on Day 0 ((S)-enantiomers)
  Average % Efficacy (Tick Count): 88%
[2]; Day 95, 0.5 mg/kg subcutaneous on Day 0 ((S)-enantiomers)
  Average % Efficacy (Tick Count): 92%
[2]; Day 100, 0.5 mg/kg subcutaneous on Day 0 ((S)-enantiomers)
  Average % Efficacy (Tick Count): 88%
[2]; Day 105, 0.5 mg/kg subcutaneous on Day 0 ((S)-enantiomers)
  Average % Efficacy (Tick Count): 76%
[2]; Day 110, 0.5 mg/kg subcutaneous on Day 0 ((S)-enantiomers)
  Average % Efficacy (Tick Count): 65%
[2]; [3]
  efficacy and duration of activity against Rhipicephalus microplus compared with other isoxazoline compounds: surprising and unexpected efficacy
  speed of onset of efficacy against Rhipicephalus microplus compared with other isoxazoline compounds: faster-acting
